From US10676514B2, “CDCA1-derived peptide and vaccine containing same” (ONCOTHERAPY SCIENCE, INC., priority 2014, dated 2020)
“Also recorded” adds a separate entry of the source.

Experiments:
[1] = test system: peptide-pulsed C1R-A11 cells; assay: IFN-gamma ELISPOT assay of peptide-induced CTLs (HLA-A*1101); type: cell-based, human; settings: CTLs induced from HLA-A*1101-positive donors, peptide-pulsed C1R-A11 vs control
Summary of the method: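 CD8+ T cells from HLA-A*1101-positive healthy donors stimulated three times (days 0, 7, 14) with autologous monocyte-derived DCs pulsed with 20 μg/ml peptide, with IL-7 and IL-2. On day 21, CTL lines and clones tested by IFN-γ ELISPOT against peptide-pulsed C1R-A11 stimulators (1×10^4 cells/well).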

[2] = test system: peptide-pulsed C1R-A03; assay: IFN-gamma ELISA of CTL lines and CTL clones (HLA-A*0301); type: cell-based, human; settings: for IFN-gamma production of CTL clones: CTL clones by limiting dilution; for IFN-gamma production of CTL lines: peptide-pulsed vs non-pulsed target cells, HLA-A*0301
Method: CTLs were propagated in culture using methods similar to those disclosed by Riddell et al. (Walter E A et al., N Engl J Med 1995, 333(16): 1038-44; Riddell S R et al., Nat Med 1996, 2(2): 216-23). The CTLs were co-cultured in a total of 25 ml AIM-V medium containing 5% AS (AIM-V/5% AS) and 40 ng/ml anti-CD3 antibody with two types of Mitomycin C-treated human B lymphoblastoid cell lines at 5×10^6 cells/flask. One day after beginning of the culturing, 120 IU/ml IL-2 was added to the culture. On days 5, 8 and 11, a fresh AIM-V/5% AS medium containing 30 IU/ml IL-2 was added to the culture (Tanaka H et al., Br J Cancer 2001, 84(1): 94-9; Umano Y et al., Br J Cancer 2001, 84(8): 1052-7; Uchida N et al., Clin Cancer Res 2004, 10(24): 8577-86; Suda T et al., Cancer Sci 2006, 97(5): 411-9; Watanabe T et al., Cancer Sci 2005, 96(8): 498-506).
Dilution of CTLs was carried out to make 0.3, 1 and 3 cells/well in 96 round-bottomed microtiter plates (Nalge Nunc International). The CTLs were co-cultured with two types of Mitomycin C-treated human B lymphoblastoid cell lines at 1×10^4 cells/well in a total of 150 micro-l/well AIM-V/5% AS medium with 30 ng/ml anti-CD3 antibody and 125 IU/ml IL-2. Ten days later, IL-2 was added to the medium at 50 micro-l/well to reach a final concentration of 125 IU/ml. On day 14, the CTL activity was tested, and the CTL clones were propagated using the same method as described above (Uchida N et al., Clin Cancer Res 2004, 10(24): 8577-86; Suda T et al., Cancer Sci 2006, 97(5): 411-9; Watanabe T et al., Cancer Sci 2005, 96(8): 498-506).
Specifically, peptide-pulsed C1R-A03 (1×10^4 cells/well) was prepared as the stimulator cell. The induced CTLs, i.e., CTL lines and CTL clones, were used as the responder cell. The IFN-gamma ELISPOT assay and IFN-gamma ELISA were performed according to the manufacturer's manual.

Sequence | peptide-specific CTL activity (IFN-gamma production) ([1]; listed as CDCA1-A11-9-219) | IFN-gamma production of CTL clones ([2]; peptide-pulsed C1R-A03, listed as CDCA1-A03-9-219) | IFN-gamma production of CTL lines [2] | peptide-specific CTL activity (IFN-gamma production) ([1]; listed as CDCA1-A11-10-400) | IFN-gamma production of CTL clones ([2]; peptide-pulsed C1R-A03, listed as CDCA1-A03-10-400)
KTKRLNELK (a peptide derived from CDCA1) [SEQ ID NO: 7] | potent IFN-gamma production; also recorded: significant specific CTL activity | Potent IFN-gamma production | potent IFN-gamma production | – | –
KIKLGIQQLK (a peptide derived from CDCA1) [SEQ ID NO: 38] | – | – | potent IFN-gamma production | potent IFN-gamma production; also recorded: significant specific CTL activity | Potent IFN-gamma production
